Experimental data taken from patent publication US12679877B2, “NPRA agonists, compositions, and uses thereof” (PharmaIn Corporation, priority 2017, dated 2026).
Non-standard residues stand in square brackets, D forms with d. No end group written: not given here. *: point of attachment. Stearoyl = CCCCCCCCCCCCCCCCCC(=O)*; Lauroyl = CCCCCCCCCCCC(=O)*

Test system: natriuretic peptide receptors (NPRA or NPRB)
Experiment: 2-point blood cGMP evaluation (2 and 6 hours) after 15 mg/Kg s.c., cGMP Direct Biotrak EIA
Assay type: in vivo, CD-1 mice
Conditions: for In vivo blood cGMP minus baseline, 2 hour (potency) / In vivo blood cGMP minus baseline, 6 hour (receptor depletion): 15 mg/Kg s.c. in mice (n=3), minus baseline 30 pmol/ml (n=12); for In vivo blood cGMP minus baseline, 2 hour (potency): 2 hours after dosing; for In vivo blood cGMP minus baseline, 6 hour (receptor depletion): 6 hours after dosing; for activity / potency compared to ANP, in words (2 hour data in Table 2) / apparent receptor depletion/internalization, in words (6 hour data in Table 2): 15 mg/Kg s.c. in mice, blood cGMP
Procedure: Various derivatives of ANP were made and screened for increase in vivo potency while limiting the apparent receptor depletion effects (or perhaps can act on another cGMP enhancing receptors) by looking at the level of blood cGMP at specific time points. […] Various derivatives were made and tested in vivo to determine the level of blood cGMP at 2 hours and 6 hours after subcutaneous administration of 15 mg/Kg in mice (which was allometrically equivalent to human dose of 1.5 mg/Kg) with the goal of finding derivatives that were therapeutically useful for increasing blood cGMP.
For 2-point cGMP evaluation of various derivatives, test samples were dissolved in water (Lonza, Wakersville, MD) before being lyophilized. Prior to use, the lyophilized test sample was dissolved in saline then 15 mg/Kg was injected subcutaneously into female CD-1 mice 6-8 weeks (n=3). Blood samples were collected at 2 and 6 hours with K2EDTA blood collection tube. The collection tube was then centrifuged at 13,000 rpm for 10 minutes at 4° C. to separate plasma. The plasma was analyzed using the cGMP Direct Biotrak EIA (GE Healthcare Life Sciences, Marlborough, MA). Note that by using allometric scaling at exponent of 0.7 [dose in other species=mice dose/((mouse weight/weight of average other species)^0.7)], the 15 mg/Kg in mice is equivalent to about 7.5 mg/Kg rat dose, about 2.5 mg/Kg dog dose, and 1.5 mg/Kg human dose. For the purpose the present disclosure, the 15 mg/Kg in mice as presented in the relevant data examples, should be understood as equivalent to about 7.5 mg/Kg rat dose, which is equivalent to about 2.5 mg/Kg dog dose, which is equivalent to about 1.5 mg/Kg human dose. Because the mice cGMP response to 15 mg/Kg dose of the newly discovered derivatives (see Table 2) was quite high, it would be prudent to use daily doses that are lower than 15 mg/Kg for mice, 7.5 mg/Kg for rat, 2.5 mg/Kg for dog, and 1.5 mg/Kg for human since any higher dose may result in too much increase in cGMP that can result in too much or even dangerous drop in blood pressure unless formulated in a very slow release delivery system. In fact based on cGMP response it was more preferable to use daily doses that are lower than […], 1.5 mg/Kg for rat, 0.5 mg/Kg for dog, and 0.3 mg/Kg for human. Additionally, the level of blood cGMP is preferably between 1.5 to 3-times of the normal baseline level. The blood or plasma cGMP normal baseline level was about 20-50 pmol/ml but could vary slightly depending on the assay kit used to measure the level.

Substance | In vivo blood cGMP minus baseline, 2 hour (potency) | In vivo blood cGMP minus baseline, 6 hour (receptor depletion) | activity / potency compared to ANP, in words (2 hour data in Table 2) | apparent receptor depletion/internalization, in words (6 hour data in Table 2)
CH3(CH2)10CO-KKGGGSLRRSSCFGGRMDRIGAQSGLGCNSFRY (Lauroyl-KKGGGSLRRSSCFGGRMDRIGAQSGLGCNSFRY; not fully specified (bridges); printed as CH3(CH2)10CO-KKGGGSLRRSSCFGGRMDRIGAQSGLGCNSFRY; cysteine pairing not given here; listed as Homo Sapiens) [SEQ ID NO. 9] | 163.62 nM | 4.78 pmol/mL | increased potency | 
CH3(CH2)10CO-KKKGGGSLRRSSCFGGRMDRIGAQSGLGCNSFRY (Lauroyl-KKKGGGSLRRSSCFGGRMDRIGAQSGLGCNSFRY; not fully specified (bridges); printed as CH3(CH2)10CO-KKKGGGSLRRSSCFGGRMDRIGAQSGLGCNSFRY; cysteine pairing not given here; listed as Homo Sapiens) [SEQ ID NO. 11] | 136.16 nM | 10.28 pmol/mL | increased potency | 
CH3(CH2)10CO-KKKKGGGSLRRSSCFGGRMDRIGAQSGLGCNSFRY (Lauroyl-KKKKGGGSLRRSSCFGGRMDRIGAQSGLGCNSFRY; not fully specified (bridges); printed as CH3(CH2)10CO-KKKKGGGSLRRSSCFGGRMDRIGAQSGLGCNSFRY; cysteine pairing not given here; listed as Homo Sapiens) [SEQ ID NO. 15] | 60.52 nM | 3.36 pmol/mL | increased potency | prevented apparent receptor depletion/internalization
CH3(CH2)16CO-KKGGGSLRRSSCFGGRMDRIGAQSGLGCNSFRY (Stearoyl-KKGGGSLRRSSCFGGRMDRIGAQSGLGCNSFRY; not fully specified (bridges); printed as CH3(CH2)16CO-KKGGGSLRRSSCFGGRMDRIGAQSGLGCNSFRY; cysteine pairing not given here; listed as Homo Sapiens) [SEQ ID NO. 10] | 183.12 nM | 14.78 pmol/mL | increased potency | 
CH3(CH2)16CO-KKKGGGSLRRSSCFGGRMDRIGAQSGLGCNSFRY (Stearoyl-KKKGGGSLRRSSCFGGRMDRIGAQSGLGCNSFRY; not fully specified (bridges); printed as CH3(CH2)16CO-KKKGGGSLRRSSCFGGRMDRIGAQSGLGCNSFRY; cysteine pairing not given here; listed as Homo Sapiens) [SEQ ID NO. 14] | 574.25 nM | 255.75 pmol/mL | increased potency | 
CH3(CH2)16CO-KKKKGGGSLRRSSCFGGRMDRIGAQSGLGCNSFRY (Stearoyl-KKKKGGGSLRRSSCFGGRMDRIGAQSGLGCNSFRY; not fully specified (bridges); printed as CH3(CH2)16CO-KKKKGGGSLRRSSCFGGRMDRIGAQSGLGCNSFRY; cysteine pairing not given here; listed as Homo Sapiens) [SEQ ID NO. 18] | 355.17 nM | 231.65 pmol/mL | increased potency | prevented apparent receptor depletion/internalization
CH3(CH2)16CO-KKKKSLRRSSCFGGRMDRIGAQSGLGCNSFRY (Stearoyl-KKKKSLRRSSCFGGRMDRIGAQSGLGCNSFRY; not fully specified (bridges); cysteine pairing not given here; listed as Homo Sapiens) [SEQ ID NO. 35] | 45.00 nM | 12.79 pmol/mL | slightly increased in activity | no significant effect on apparent receptor internalization
CH3(CH2)16CO-KKKKSLRRSSCFGGRMDRIGAQSGLGCNSFrY (Stearoyl-KKKKSLRRSSCFGGRMDRIGAQSGLGCNSF[dR]Y; not fully specified (bridges); printed as KKKKSLRRSSCFGGRMDRIGAQSGLGCNSFrY; cysteine pairing not given here; listed as Homo Sapiens) [SEQ ID NO. 36] | inactive | inactive |  | 
CH3(CH2)16CO-RRR-SGRGGGCFGGRMDRIGAQSGLGCNSFRY (Stearoyl-RRRSGRGGGCFGGRMDRIGAQSGLGCNSFRY; not fully specified (bridges); printed as CH3(CH2)16CO-RRR-SGRGGGCFGGRMDRIGAQSGLG; cysteine pairing not given here; listed as Homo Sapiens) [SEQ ID NO. 37] | 45.61 nM | 10.16 pmol/mL | limited increase in activity | 
CH3(CH2)16CO-RRR-SGRGSGCFGGRMDRIGAQSGLGCNSFRY (Stearoyl-RRRSGRGSGCFGGRMDRIGAQSGLGCNSFRY; not fully specified (bridges); printed as CH3(CH2)16CO-RRR-SGRGSGCFGGRMDRIGAQSGLG; cysteine pairing not given here; listed as Homo Sapiens) [SEQ ID NO. 38] | 33.56 nM | 7.97 pmol/mL | limited increase in activity | 
CH3(CH2)16CO-RRR-SLPRSSCFGGRMDRIGAQSGLGCNSFRY-NH2 (Stearoyl-RRRSLPRSSCFGGRMDRIGAQSGLGCNSFRY-NH2; not fully specified (bridges); printed as CH3(CH2)16CO-RRR-SLPRSSCFGGRMDRIGAQSGLG; cysteine pairing not given here; listed as Homo Sapiens) [SEQ ID NO. 39] | inactive | inactive | loss or diminished of activity | 
CH3(CH2)16CO-RRR-SLPRSSCFGGRMDRIGAQSGLGCNSFrY-NH2 (Stearoyl-RRRSLPRSSCFGGRMDRIGAQSGLGCNSF[dR]Y-NH2; not fully specified (bridges); printed as CH3(CH2)16CO-RRR-SLPRSSCFGGRMDRIGAQSGLG; cysteine pairing not given here; listed as Homo Sapiens) [SEQ ID NO. 40] | inactive | inactive | loss or diminished of activity | 
CH3(CH2)16COKKGGGGLSKGCFGLKLDRIGSMSGLGC (Stearoyl-KKGGGGLSKGCFGLKLDRIGSMSGLGC; not fully specified (bridges); printed as CH3(CH2)16COKKGGGGLSKGCFGLKLDRIGSMSGLGC; cysteine pairing not given here; listed as Homo Sapiens) [SEQ ID NO. 86] | 80.2 nM | 42.37 pmol/mL |  | 
CH3(CH2)16COKKKGGGGLSKGCFGLKLDRIGSMSGLGC (Stearoyl-KKKGGGGLSKGCFGLKLDRIGSMSGLGC; not fully specified (bridges); printed as CH3(CH2)16COKKKGGGGLSKGCFGLKLDRIGSMSGLGC; cysteine pairing not given here; listed as Homo Sapiens) [SEQ ID NO. 68] | 330.29 nM | 250.33 pmol/mL |  | 
CH3(CH2)16COKKKKGGGGLSKGCFGLKLDRIGSMSGLGC (Stearoyl-KKKKGGGGLSKGCFGLKLDRIGSMSGLGC; not fully specified (bridges); printed as CH3(CH2)16COKKKKGGGGLSKGCFGLKLDRIGSMSG; cysteine pairing not given here; listed as Homo Sapiens) [SEQ ID NO. 72] | 544.99 nM | 368.29 pmol/mL | increased potency | 
